From publication PMC11207005 (Pharmaceuticals, 2024)

Columns and labels:
[1] = Phase solubility study: solubility of pure ALB in distilled water; assay type: physicochemical; conditions: thermodynamic from solid, 25 °C
Procedure: (§1) Phase solubility tests were conducted in distilled water following the procedure outlined in the Higuchi and Connors technique. […] Samples were placed in the water bath (25 °C/2 days/50 rpm) to attain equilibrium. Samples of 3 mL were withdrawn and filtered through a 0.45 μm nylon membrane filter. The filtrate (1 mL) was diluted appropriately with methanol, stirred for one hour (200 rpm), and assayed at 340 nm. The concentrations used were 2, 4, 10, 15, and 20 mmol/L for both βCD and HPβCD.

[2] = cited from earlier work
[3] = Phase solubility study of ALB with HPβCD (stability constant); assay type: physicochemical; conditions: distilled water, 25 °C
Procedure: as §1

[4] = Oral pharmacokinetic (bioavailability) study in rats, non-compartmental analysis; assay type: in vivo, Wistar rats
Procedure: The Shimadzu SCL-10A VP system control (Kyoto, Japan) has a mass detector (LCMS2010A) from Shimadzu Kylimatu, Japan. The mobile phase comprised acetonitrile–deionized water–formic acid (70: 30: 0.1%, v/v). Rosuvastatin was utilized as an internal standard. The injection volume was 10 µL; the flow rate was […]; the autosampler temperature was 5 °C; the column temperature was 25 °C; and the column was ACE (C18; 4.6 × […]) with particle size of 5.0 µm.
The samples were prepared for injection into the instrument as follows: Samples (including known/unknown spiked plasma and samples) were obtained from the deep freezer, followed by a period of room-temperature thaw. Later, a plasma pipet was performed on the samples after they were shaken to form a mixture. A total of 270 µL of blank plasma per 300 µL of spiked plasma were pipetted into the labeled test tubes, and 30 µL of serial solutions into blank plasma were added. Then, 50 µL of rosuvastatin (IS) working solutions were added. Then, the samples were vortexed for roughly 10 s. A total of 700 µL of acetonitrile (precipitation solutions) were added and vortexed again for 2.0 min, then centrifugated at 4000 rpm for roughly five min at room temperature. After that, 200 µL from the supernatant was transferred to the HPLC vials inserts. Finally, the vials were capped and transferred into the autosampler racks.
The study protocol was validated and approved by the Institutional Review Board (IRB) of Applied Science University (ASU) (Decision no. 6/2021–2022). The preclinical investigation was conducted at the Animal House of ASU as a combined project. A total of 12 Wistar rats were prepared for this study and divided into two groups, with each group containing 6 rats. The average weight of the animals was 200 g ± 15 g, aged four weeks, and they were all males.
The animals for the experiment were prepared by depriving them of food (for about twelve hours) apart from full access to water, and they were identified by a sign mark on the tail. After the dosing of ALB, samples were retrieved from the rat’s tail. After, the tail was warmed for half a minute via a hot pad before every sampling period. […] The samples were kept in heparinized Eppendorf tubes, centrifugated to obtain the plasma, frozen at −25 °C, and kept until the time of analysis.
The plasma level–time profile of ALB was obtained using Microsoft Excel. Two profiles, F1 in G1 and F2 in G2, were plotted. […] ANOVA was applied to detect significant parameter differences using a […].

[5] = Phase solubility study of ALB with βCD (stability constant); assay type: physicochemical; conditions: distilled water, 25 °C
Procedure: as §1

[6] = cited from earlier work; remark: listed apart in the source
[7] = Dissolution test, USP apparatus type II; assay type: physicochemical; conditions: pH 6.8 phosphate buffer, 37 °C, 100 rpm, powder
Procedure: In the following circumstances, the dissolution test was carried out on the prepared ALB capsules and the complex-containing ones. The dissolution medium was a USP type II (paddle type) and 900 mL of pH 6.8 phosphate buffer at 37 ± 1 °C with the rotation speed fixed at […]. At selected time points (10, 20, …, 80), 2 mL samples of dissolution medium were withdrawn and replaced with a fresh buffer. Times start from 0-time points for powder dissolution and end after 20 min (average time to dissolve the capsule shell).

[8] = male, Wistar, rat, plasma, po, 15 mg/kg

For `CCc1cc2c(cc1N1CCC(N3CCOCC3)CC1)C(C)(C)c1[nH]c3cc(C#N)ccc3c1C2=O` [ALB, Alectinib], the solubility at 2 days [1] is listed as 2 µM, the solubility at 2 days ([1]; approximate) is listed as roughly 1 µg/mL and the Oral bioavailability [2] is listed as “around 37%”. The “Ks (stability constant)” value [3] was 1836 M⁻¹, the “Plasma concentration of ALB at 72 h” value ([4]; Wistar rats, F1 and F2, LLOQ 15 ng/mL) was “below the LLOQ” and the AUC(0-inf) [4, 8] was 7280 ± 306 ng·h/mL. The Cmax [4, 8] was 240 ± 26.9 ng/mL, the Tmax [4, 8] was 7.33 ± 1.03 h and the AUC(0-t) ([4]; male, Wistar, rat, plasma, po, 15 mg/kg, read-out: AUC0-48 (AUC-48)) was 5950 ± 265 ng·h/mL. For the same molecule, the k el ([4]; male, Wistar, rat, plasma, po, 15 mg/kg, read-out: Kel (elimination rate constant) (converted)) was 1.25e-05 s⁻¹, the “Ks (stability constant)” value [5] was 500 M⁻¹ and the “log partition coefficient (log p)” value [6] was 5.2. The “T30 (amount of ALB released in 30 min)” value [7] was 18%.
